Reference: patent US5004746A, “Anti-retroviral castanospermine esters” (Merrell Dow Pharmaceuticals Inc., priority 1987, dated 1991)
≈ marks a conversion by molar mass, not a printed value. Like-named read-outs stand apart in the source and are kept apart here.

Legend:
[1] = tested on: viral protein glycosylation; details: cited from earlier work
[2] = tested on: influenza infected cells; details: cited from earlier work
[3] = tested on: HIV glycoproteins; details: Blough et al. 1986; cited from earlier work
[4] = tested on: HIV; details: Blough et al. 1986; cited from earlier work
[5] = tested on: HIV-infected cells; details: Blough et al. 1986; cited from earlier work
[6] = tested on: Moloney murine leukemia virus (MoLV); experiment: in vitro XC plaque assay (inhibition of growth and replication of murine leukemia virus); type: cell-based; details: SC1, MoLV on mouse SC-1 cells, rat XC cells, compound added 2 hours prior to virus, read-out: IC50 (inhibitory concentration)
Method: This assay was performed according to the method of Rowe et al. (Virology, 1970, 42, 1136-39) as previously described by L. Hsu, et al. (J. Viroloqical Methods, 1980, 1, 167-77) and T. L. Bowlin and M. R. Proffitt (J. Interferon Res., 1983, 3(1), 19-31). Mouse SC-1 cells (fibroblast) (10^5) were seeded into each well of 6-well cluster plates (Costar #3506) in 4 ml Minimum Essential Medium (MEM) with 10% Fetal Calf Serum (FCS). Following an 18 hour incubation period (37° C.), Moloney murine leukemia virus (MoLV) was applied at a predetermined titer to give optimal (i.e. countable) numbers of virus plaques. Compounds were added 2 hours prior to addition of the virus. Three days later the culture medium was removed, the SC-1 cell monolayers were exposed to UV irradiation (1800 ergs), and rat XC cells […] were seeded into each well in 4 ml MEM. Following an additional 3 day incubation (37° C.), these cells were fixed with ethyl alcohol (95%) and stained with 0.3% crystal violet. Plaques were then counted under low magnification.

SMILES	IC50 [6]	also measured
OC[C@H]1OC(O)[C@@H](F)[C@@H](O)[C@@H]1O (stereo partly drawn) [2-deoxy-2-fluoro-D-mannose]		inhibition of viral protein glycosylation [1]: preventing the glycosylation of viral membrane protein; antiviral activity against influenza infected cells [2]: exhibit antiviral activity against influenza infected cells
OC[C@H]1OC(O)[C@H](F)[C@@H](O)[C@@H]1O (some centres unmarked) [2-deoxy-2-fluoroglucose]		inhibition of viral protein glycosylation [1]: inhibit viral protein glycosylation
O=CC[C@@H](O)[C@H](O)[C@H](O)CO [2-deoxy-D-glucose]		inhibition of expression of HIV glycoproteins [3]: inhibit expression of HIV glycoproteins; block of formation of syncytia [4]: block the formation of syncytia; viral multiplication of HIV-infected cells [5]: stopped; inhibition of viral protein glycosylation ([1]; McDowell et al. 1985): inhibit viral protein glycosylation
O=C(O[C@H]1CN2CC[C@H](O)[C@@H]2[C@@H](O)[C@@H]1O)c1ccco1 [R = 2-Furanoyl, R1 = H, R2 = H, 6-(2-Furancarboxylate)]	1 µg/mL (≈ 3.53 µM)	
CC(=O)O[C@H]1CN2CC[C@H](O)[C@@H]2[C@@H](O)[C@@H]1O [R = Ac, R1 = H, R2 = H, [1S-(1α,6β,7α,8β,8aβ)]-octahydro-1,6,7,8-indolizinetetrol 6-acetate]	10 µg/mL (≈ 43.2 µM)	
CCCC(=O)O[C@H]1[C@H](O)[C@@H](OC(=O)CCC)CN2CC[C@H](O)[C@H]12 [R = Butanoyl, R1 = H, R2 = Butanoyl, [1S-(1α,6β,7α,8β,8aβ)]-octahydro-1,6,7,8-indolizinetetrol 6,8-dibutanoate]	0.5 µg/mL (≈ 1.52 µM)	
CCCC(=O)O[C@H]1CN2CC[C@H](O)[C@@H]2[C@@H](O)[C@@H]1O [R = Butanoyl, R1 = H, R2 = H, [1S(1α,6β,7α,8β,8aβ)]-octahydro-1,6,7,8indolizinetrol 6-butanoate]	0.1 µg/mL (≈ 0.386 µM)	
O=C(O[C@H]1[C@H](O)[C@H]2[C@@H](O)CCN2C[C@@H]1OC(=O)c1ccccc1)c1ccccc1 [R = Bz, R1 = Bz, R2 = H, [1S-(1α,6β,7α,8β,8aβ)]-octahydro-1,6,7,8-indolizinetetrol 6,7-dibenzoate]	10 µg/mL (≈ 25.2 µM)	
O=C(O[C@H]1CN2CC[C@H](O)[C@@H]2[C@@H](O)[C@@H]1O)c1ccccc1 [R = Bz, R1 = H, R2 = H, [1S-(1α,6β,7α,8β,8aβ)]octahydro-1,6,7,8-indolizinetetrol 6-benzoate]	0.1 µg/mL (≈ 0.341 µM)	
O=C(O[C@H]1[C@H](O)[C@H]2[C@@H](O)CCN2C[C@@H]1O)c1ccc(Cl)cc1Cl [R = H, R1 = 2,4-Cl2 -Bz, R2 = H, [1S-(1α,6β,7α,8β,8aβ)]-octahydro-1,6,7,8-indolizinetetrol 7-(2,4-dichlorobenzoate)]	1 µg/mL (≈ 2.76 µM)	
O=C(O[C@H]1[C@H](O)[C@H]2[C@@H](O)CCN2C[C@@H]1O)c1ccccc1 [R = H, R1 = Bz, R2 = H, [1S-(1α,6β,7α,8β,8aβ)]-octahydro 1,6,7,8-indolizinetetrol 7-benzoate]	1 µg/mL (≈ 3.41 µM)	
Cc1ccc(C(=O)O[C@H]2[C@H](O)[C@H]3[C@@H](O)CCN3C[C@@H]2O)cc1 [R = H, R1 = p-CH3 Bz, R2 = H, [1S-(1α,6β,7α,8β,8aβ)]-octahydro-1,6,7,8-indolizinetetrol 7-(4-methylbenzoate)]	1 µg/mL (≈ 3.25 µM)	
Cc1ccc(C(=O)O[C@H]2CN3CC[C@H](O)[C@@H]3[C@@H](O)[C@@H]2O)cc1 [R = p-CH3 -Bz, R1 = H, R2 = H, [1S-(1α,6β,7α,8β,8aβ)]-octahydro-1,6,7,8-indolizinetetrol 6-(4-methylbenzoate)]	1 µg/mL (≈ 3.25 µM)	
COc1ccc(C(=O)O[C@H]2CN3CC[C@H](O)[C@@H]3[C@@H](O)[C@@H]2O)cc1 [R = p-CH3 O-Bz, R1 = H, R2 = H, [1S-(1α,6β,7α,8β,8aβ)]-octahydro-1,6,7,8-indolizinetetrol 6-(4-methoxybenzoate)]	10 µg/mL (≈ 30.9 µM)	
O=C(O[C@H]1CN2CC[C@H](O)[C@@H]2[C@@H](O)[C@@H]1O)c1ccc(F)cc1 [R = p-F-Bz, R1 = H, R2 = H, [1S-(1α,6β,7α,8β,8aβ)]-octahydro-1,6,7,8-indolizinetetrol 6-(4-fluorobenzoate)]	10 µg/mL (≈ 32.1 µM)	
O=C(O[C@H]1[C@H](O)[C@H]2[C@@H](O)CCN2C[C@@H]1OC(=O)c1ccc(F)cc1)c1ccc(F)cc1 [R = p-F-Bz, R1 = p-F-Bz, R2 = H, [1S-(1α,6β,7α,8β,8aβ)]-octahydro-1,6,7,8-indolizinetetrol 6,7-bis(4-fluorobenzoate)]	10 µg/mL (≈ 23.1 µM)	
CCC(O)[C@H](N)C(=O)O (stereo partly drawn) [β-hydroxy-norvaline]		inhibition of expression of HIV glycoproteins [3]: inhibit expression of HIV glycoproteins; block of formation of syncytia [4]: block the formation of syncytia; viral multiplication of HIV-infected cells [5]: stopped
